According to patent EP0569083A1, “New quinazolines as inhibitors of HIV reverse transcriptase” (priority 1992, dated 1993):
Read-outs that look alike come from different tables or passages of the source.

Tests used:
[1] = target: T1, A17 RT (Human immunodeficiency virus type 1 group M subtype B, UniProt P04585, K690N/Y768C); test: Reverse transcriptase assay, double (DBL) mutant; assay type: biochemical, HIV
T1 construct: A17 RT was employed in the assay; made in house; host or cells: bacteria
Method: (§1) The assay measures the incorporation of tritiated deoxyguanosine monophosphate by recombinant HIV reverse transcriptase (HIV RTR) (or other RT) into acid-precipitable cDNA at the Km values of dGTP and poly r(C)·oligo d(G)₁₂₋₁₈.
(§2) The assays were carried out in 55 mM Tris (pH 8.2)-30 mM KCl-30 mM MgCl₂-1 mM dithiothreitol-20 µg of rC:dG₁₂₋₁₈ (Pharmacia) per ml-8 µM [³H]dGTP (New England Nuclear)-0.01% Triton X-100-50 µM ethylene glycol-bis(β-amino-ethyl ether)-N,N,N',N'-tetraacetic acid (EGTA)-1 mg of bovine serum albumin per ml. After 60 min of incubation at 37°C, acid-precipitable material was collected onto glass fiber filters by using a semiautomatic cell harvester. Bacterial cell extracts containing RT were diluted to within the linear range of the assay, and activity was determined in the presence and absence of inhibitor. Purified HIV-1 RT heterodimer produced in E. coli also served as a control.
For the double (DBL) mutant assay, A17 RT was employed in the assay. A17 RT is resistant to various aminopyridones, as described in Nunberg, J.H. et al., J. Virol. 65, 4887 (1991).

[2] = target: T2, recombinant HIV reverse transcriptase (HIV RTR) (Human immunodeficiency virus type 1 group M subtype B, UniProt P04585); test: Reverse transcriptase assay (incorporation of tritiated dGMP into acid-precipitable cDNA); assay type: biochemical
T2 construct: recombinant HIV reverse transcriptase (HIV RTR); made in house; host or cells: bacteria (E. coli is named only for the purified heterodimer control)
Method: as §1, §2

[3] = recombinant HIV RT, 60 min at 37°C, read-out: IC50

O=C1Nc2ccc(Cl)cc2C(C#Cc2ccccn2)(C2CC2)N1 (racemic) [Compound 11, 6-chloro-4-cyclopropyl-3,4-dihydro-4-((2-pyridyl)ethynyl)quinazolin-2(1H)-one]
IC50 [1]: 635 nM
IC50 [2]: 19 nM

COCC#CC1(C2CC2)NC(=O)Nc2ccc(Cl)cc21 (stereo not drawn) [Compound 1, 6-chloro-4-cyclopropyl-3,4-dihydro-4-(3-methoxy-1-propynyl)quinazolin-2(1H)-one]
IC50 [1]: 7300 nM
IC50 [2]: 49 nM

COCC#CC1(C2CC2)c2cc(Cl)ccc2NC(=O)N1C (stereo not drawn) [Compound 2, 6-chloro-4-cyclopropyl-3,4-dihydro-3-methyl-4-(3-methoxy-1-propynyl)quinazolin-2(1H)-one]
IC50 [1]: 700 nM
IC50 [2]: 13 nM

CN1C(=O)Nc2ccc(Cl)cc2C1(C#CCOCC(F)(F)F)C1CC1 (stereo not drawn) [Compound 3, 6-chloro-4-cyclopropyl-3,4-dihydro-3-methyl-4-(3-(2,2,2-trifluoroethoxy)-1-propynyl)quinazolin-2(1H)-one]
IC50 [1]: 2600 nM
IC50 [2]: 19 nM

CN1C(=O)Nc2ccc(Cl)cc2C1(C#CCCF)C1CC1 (stereo not drawn) [Compound 4, 6-chloro-4-cyclopropyl-4-(4-fluoro-1-butynyl)-3,4-dihydro-3-methylquinazolin-2(1H)-one]
IC50 [1]: 230 nM
IC50 [2]: 7 nM

O=C1Nc2ccc(Cl)cc2C(C#CCCF)(C2CC2)N1 (stereo not drawn) [Compound 5, 6-chloro-4-cyclopropyl-4-(4-fluoro-1-butynyl)-3,4-dihydroquinazolin-2(1H)-one]
IC50 [1]: 3500 nM
IC50 [2]: 31 nM

CN1C(=O)Nc2ccc(Cl)cc2C1(C#CCCCl)C1CC1 (stereo not drawn) [Compound 6, 6-chloro-4-(4-chloro-1-butynyl)-4-cyclopropyl-3,4-dihydro-3-methylquinazolin-2(1H)-one]
IC50 [1]: 250 nM
IC50 [2]: 7 nM

CN1C(=O)Nc2ccc(Cl)cc2C1(C#CCN=[N+]=[N-])C1CC1 (stereo not drawn) [Compound 7, 4-(3-azido-1-propynyl)-6-chloro-4-cyclopropyl-3,4-dihydro-3-methylquinazolin-2(1H)-one]
IC50 [1]: 1750 nM
IC50 [2]: 20 nM

CN1C(=O)Nc2ccc(Cl)cc2C1(C#CCF)C1CC1 (stereo not drawn) [Compound 8, 6-chloro-4-cyclopropyl-4-(3-fluoro-1-propynyl)-3,4-dihydro-3-methylquinazolin-2(1H)-one]
IC50 [1]: 2900 nM
IC50 [2]: 24 nM

CN(C)CC#CC1(C2CC2)c2cc(Cl)ccc2NC(=O)N1C (stereo not drawn) [Compound 9, 6-chloro-4-cyclopropyl-3,4-dihydro-3-methyl-4-(3-(N,N-dimethylamino)-1-propynyl)quinazolin-2(1H)-one]
IC50 [1]: 273 nM
IC50 [2]: 54 nM

CN1C(=O)Nc2ccc(Cl)cc2C1(C#Cc1ccccn1)C1CC1 (stereo not drawn) [Compound 10, 6-chloro-4-cyclopropyl-3,4-dihydro-3-methyl-4-((2-pyridyl)ethynyl)quinazolin-2(1H)-one]
IC50 [1]: 87 nM
IC50 [2]: 21 nM

O=C1Nc2ccc(Cl)cc2C(C#Cc2cccnc2)(C2CC2)N1 (stereo not drawn) [Compound 12, 6-chloro-4-cyclopropyl-3,4-dihydro-4-((3-pyridyl)ethynyl)quinazolin-2(1H)-one]
IC50 [1]: 310 nM
IC50 [2]: 84 nM

O=C1Nc2ccc(Cl)cc2C(C#Cc2ccncc2)(C2CC2)N1 (stereo not drawn) [Compound 13, 6-chloro-4-cyclopropyl-3,4-dihydro-4-((4-pyridyl)ethynyl)quinazolin-2(1H)-one]
IC50 [1]: 3000 nM
IC50 [2]: 470 nM

O=C1Nc2ccc(Cl)cc2C(C#Cc2cncnc2)(C2CC2)N1 (stereo not drawn) [Compound 14, 6-chloro-4-cyclopropyl-3,4-dihydro-4-((5-pyrimidinyl)ethynyl)quinazolin-2(1H)-one]
IC50 [1]: 3000 nM
IC50 [2]: 1750 nM

O=C1Nc2ccc(Cl)cc2C(C#Cc2ncccn2)(C2CC2)N1 (stereo not drawn) [Compound 15, 6-chloro-4-cyclopropyl-3,4-dihydro-4-((2-pyrimidinyl)ethynyl)quinazolin-2(1H)-one]
IC50 [1]: 8800 nM
IC50 [2, 3]: 130 nM

O=C1Nc2ccc(Cl)cc2C(C#Cc2cnccn2)(C2CC2)N1 (stereo not drawn) [Compound 16, 6-chloro-4-cyclopropyl-3,4-dihydro-4-((2-pyrazinyl)ethynyl)quinazolin-2(1H)-one]
IC50 [1]: 9000 nM
IC50 [2, 3]: 270 nM

CN1C(=O)Nc2ccc(Cl)cc2C1(C#CCOc1ccncc1)C1CC1 (stereo not drawn) [Compound 17, 6-chloro-4-cyclopropyl-3,4-dihydro-3-methyl-4-(3-(4-pyridyloxy)-1-propynyl)quinazolin-2(1H)-one]
IC50 [1]: 3900 nM
IC50 [2]: 165 nM

CN1C(=O)Nc2ccc(Cl)cc2C1(C#CCOc1cc[n+]([O-])cc1)C1CC1 (stereo not drawn) [Compound 18, 6-chloro-4-cyclopropyl-3,4-dihydro-3-methyl-4-(3-(4-(N-oxopyridyl)oxy)-1-propynyl)quinazolin-2(1H)-one]
IC50 ([1]; A17 RT (double mutant, resistant to aminopyridones), read-out: IC50DBL Mutant): 65000 nM
IC50 [2, 3]: 9400 nM

CN1C(=O)Nc2ccc(Cl)cc2C1(C#CCN1CCOCC1)C1CC1 (stereo not drawn) [Compound 19, 6-chloro-4-cyclopropyl-3,4-dihydro-3-methyl-4-(3-(4-morpholinyl)-1-propynyl)quinazolin-2(1H)-one]
IC50 [1]: 22000 nM
IC50 [2]: 1000 nM

CN1C(=O)Nc2ccc(Cl)cc2C1(C#CCn1ccnc1)C1CC1 (stereo not drawn) [Compound 20, 6-chloro-4-cyclopropyl-3,4-dihydro-4-(3-(1-imidazolyl)-1-propynyl)-3-methylquinazolin-2(1H)-one]
IC50 [1]: 960 nM
IC50 [2]: 620 nM

C=CC#CC1(C2CC2)c2cc(Cl)ccc2NC(=O)N1C (stereo not drawn) [Compound 21, 4-(3-buten-1-ynyl)-6-chloro-4-cyclopropyl-3,4-dihydro-3-methylquinazolin-2(1H)-one]
IC50 [1]: 248 nM
IC50 [2]: 4.3 nM

CN1C(=O)Nc2ccc(Cl)cc2C1(C#CCO)C1CC1 (stereo not drawn) [Compound 22, 6-Chloro-4-cyclopropyl-3,4-dihydro-4-(3-hydroxy-1-propynyl)-3-methylquinazolin-2(1H)-one]
IC50 [2]: 255 nM

O=C1Nc2ccc(Cl)cc2C(C#Cc2ccccc2)(C2CC2)N1 (stereo not drawn) [Compound 23, 6-chloro-4-cyclopropyl-3,4-dihydro-4-(phenylethynyl)quinazolin-2(1H)-one]
IC50 [1]: 135 nM
IC50 [2]: 6.1 nM

CN1C(=O)Nc2ccc(Cl)cc2C1(C#CCOc1ccccn1)C1CC1 (stereo not drawn) [Compound 24, 6-Chloro-4-cyclopropyl-3,4-dihydro-3-methyl-4-(3-(2-pyridyloxy)-1-propynyl)quinazolin-2(1H)-one]
IC50 [1]: 4900 nM
IC50 [2]: 125 nM

O=C1Nc2ccc(Cl)cc2C(C#Cc2ccccc2[N+](=O)[O-])(C2CC2)N1 (stereo not drawn) [Compound 25, 6-Chloro-4-cyclopropyl-3,4-dihydro-4-(2-nitrophenylethynyl)quinazolin-2(1H)-one]
IC50 [1]: 390 nM
IC50 [2]: 10.5 nM

O=C1Nc2ccc(Cl)cc2[C@@](C#Cc2ccccn2)(C2CC2)N1 [Compound 26, 6-chloro-4(S)-cyclopropyl-3,4-dihydro-4-((2-pyridyl)ethynyl)quinazolin-2(1H)-one]
IC50 [1]: 400 nM
IC50 [2]: 7 nM
